For 40 compounds, MIC results are on record in patent US4076814A, “Preventive and curative compositions against mycoplasmosis” (Sankyo Company Limited, priority 1975, dated 1978).

Converted amounts (≈) assume the structure as drawn.

Common to all, as to type: cell-based
In one test the test system is Mycoplasma gallisepticum. Briefly: Antimicrobial test, conventional agar plate dilution method, Mycoplasma gallisepticum. Particulars: Mycoplasmoides gallisepticum, read-out: Minimum Inhibitory Concentration, Mycoplasma gallisepticum. An excerpt:
(§1) ANTIMICROBIAL TEST AGAINST THREE STRAINS OF MYCOPLASMA
(§2) The test was effected by a conventional agar plate dilution method using the indicated strains of mycoplasma. The dithiocarbamic acid derivatives as shown below with Compound Nos. were employed in the test.

The next test concerns Mycoplasma pulmonis. Briefly: Antimicrobial test, conventional agar plate dilution method, Mycoplasma pulmonis. The note with it: Mycoplasma, read-out: Minimum Inhibitory Concentration, Mycoplasma pulmonis.
Description: as §1, §2

In a further test the test system is Mycoplasma hyorhinis. Briefly: Antimicrobial test, conventional agar plate dilution method, Mycoplasma hyorhinis. The note with it: Mycoplasma, read-out: Minimum Inhibitory Concentration, Mycoplasma hyorhinis.
Description: as §1, §2

Regarding `CN(C)C(=S)SCC1CCCC1=O` (stereo not drawn) [Compound No. 1, 2-Oxocyclopentylmethyl dimethyldithiocarbamate], the MIC with Mycoplasma gallisepticum, with Mycoplasma pulmonis and with Mycoplasma hyorhinis was 0.05 µg/mL (≈ 0.23 µM) each time.

Take `CCN(CC)C(=S)SCC1CCCC1=O` (stereo not drawn) [Compound No. 2, 2-Oxocyclopentylmethyl diethyldithiocarbamate]: the MIC in the test with Mycoplasma gallisepticum, with Mycoplasma pulmonis and with Mycoplasma hyorhinis was 0.1 µg/mL (≈ 0.407 µM) throughout.

As to `O=C1CCCCC1CSC(=S)N1CCCCC1` (stereo not drawn) [Compound No. 9, 2-Oxocyclohexylmethyl 1-piperidinecarbodithioate], the MIC with Mycoplasma gallisepticum turned out to be 0.2 µg/mL (≈ 0.737 µM); with Mycoplasma pulmonis, 0.39 µg/mL (≈ 1.44 µM); in the test on Mycoplasma hyorhinis, 0.2 µg/mL (≈ 0.737 µM).

For `CC(=O)CCSC(=S)N1CCN(C)CC1` [Compound No. 92, 2-Acetylethyl 4-methyl-1-piperazinecarbodithioate], the values for the MIC in the test on Mycoplasma gallisepticum, in the test on Mycoplasma pulmonis and with Mycoplasma hyorhinis were 0.2 µg/mL (≈ 0.812 µM), 0.2 µg/mL (≈ 0.812 µM) and 0.025 µg/mL (≈ 0.101 µM), respectively.

As to `CC(=O)C(C)CSC(=S)N(C)C` (stereo not drawn) [Compound No. 147, 2-Acetylpropyl dimethyldithiocarbamate], the MIC in the test with Mycoplasma gallisepticum, in the test with Mycoplasma pulmonis and with Mycoplasma hyorhinis was 0.05 µg/mL (≈ 0.243 µM) throughout.

Take `CCN(CC)C(=S)SCc1cc(C)c(O)cc1C(C)C` [Compound No. 202, 4-Hydroxy-2-isopropyl-5-methylbenzyl diethyldithyldithiocarbamate]: the MIC with Mycoplasma gallisepticum, in the test with Mycoplasma pulmonis and in the test on Mycoplasma hyorhinis was 0.1 µg/mL (≈ 0.321 µM) in each case.

For the compound `O=C1CCCC1CSC(=S)N1CCOCC1` (stereo not drawn) [compound 3, 2-Oxocyclopentylmethyl 4-morpholinecarbodithioate], the MIC in the test with Mycoplasma gallisepticum amounted to 0.2 µg/mL (≈ 0.771 µM); in the test on Mycoplasma pulmonis, 0.1 µg/mL (≈ 0.386 µM); in the test on Mycoplasma hyorhinis it was 0.2 µg/mL (≈ 0.771 µM).

With `CN(C)C(=S)SCC1CCCCC1=O` (stereo not drawn) [compound 5, 2-Oxocyclohexylmethyl dimethyldithiocarbamate], the results for the MIC in the test with Mycoplasma gallisepticum, with Mycoplasma pulmonis and with Mycoplasma hyorhinis were 0.05 µg/mL (≈ 0.216 µM), 0.1 µg/mL (≈ 0.432 µM) and 0.05 µg/mL (≈ 0.216 µM), respectively.

`CCN(CC)C(=S)SCC1CCCCC1=O` (stereo not drawn) [compound 6, 2-Oxocyclohexylmethyl diethyldithiocarbamate]: the figures for the MIC with Mycoplasma gallisepticum, with Mycoplasma pulmonis and with Mycoplasma hyorhinis were 0.1 µg/mL (≈ 0.385 µM), 0.1 µg/mL (≈ 0.385 µM) and 0.05 µg/mL (≈ 0.193 µM), respectively.

For `CCCCN(C)C(=S)SCC1CCCCC1=O` (stereo not drawn) [compound 7, 2-Oxocyclohexylmethyl n-butylmethyldithiocarbamate], the MIC in the test with Mycoplasma gallisepticum, with Mycoplasma pulmonis and with Mycoplasma hyorhinis was 0.2 µg/mL (≈ 0.731 µM) in each case.

On to `CN(C)C(=S)SCCC(=O)c1ccccc1` [compound 23, 2-Benzoylethyl dimethyldithiocarbamate], for which the MIC was found to be 0.05 µg/mL (≈ 0.197 µM) in the test with Mycoplasma gallisepticum, 0.025 µg/mL (≈ 0.0987 µM) with Mycoplasma pulmonis and 0.05 µg/mL (≈ 0.197 µM) with Mycoplasma hyorhinis.

In the case of `O=C(CCSC(=S)N1CCCCC1)c1ccccc1` [compound 30, 2-Benzoylethyl 1-piperidinecarbodithioate], the MIC in the test on Mycoplasma gallisepticum, in the test on Mycoplasma pulmonis and with Mycoplasma hyorhinis was 0.2 µg/mL (≈ 0.682 µM) each time.

With `O=C(CCSC(=S)N1CCCCCC1)c1ccccc1` [compound 31, 2-Benzoylethyl 1-hexamethyleneiminecarbodithioate], the MIC in the test with Mycoplasma gallisepticum, in the test on Mycoplasma pulmonis and with Mycoplasma hyorhinis was 0.2 µg/mL (≈ 0.65 µM) each time.

In the case of `CN1CCN(C(=S)SCCC(=O)c2ccccc2)CC1.Cl` [compound 34, 2-Benzoylethyl 4-methyl-1-piperazinecarbodithioate hydrochloride], the MIC in the test on Mycoplasma gallisepticum, in the test on Mycoplasma pulmonis and in the test on Mycoplasma hyorhinis was 0.05 µg/mL throughout.

Turning to `O=C(CCSC(=S)N1CCOCC1)c1ccccc1O` [compound 42, 2-(o-Hydroxybenzoyl)ethyl 4-morpholinecarbodithioate], the results for the MIC in the test with Mycoplasma gallisepticum, in the test on Mycoplasma pulmonis and in the test with Mycoplasma hyorhinis were 0.2 µg/mL (≈ 0.642 µM), 0.2 µg/mL (≈ 0.642 µM) and 0.39 µg/mL (≈ 1.25 µM), respectively.

Regarding `Cc1ccc(C(=O)CCSC(=S)N(C)C)cc1` [compound 55, 2-(p-Toluoyl)ethyl dimethyldithiocarbamate], the results for the MIC with Mycoplasma gallisepticum, in the test on Mycoplasma pulmonis and with Mycoplasma hyorhinis were 0.2 µg/mL (≈ 0.748 µM), 0.39 µg/mL (≈ 1.46 µM) and 0.2 µg/mL (≈ 0.748 µM), respectively.

Turning to `Cc1cccc(C(=O)CCSC(=S)N(C)C)c1` [compound 56, 2-(m-Toluoyl)ethyl dimethyldithiocarbamate], the MIC was 0.1 µg/mL (≈ 0.374 µM) with Mycoplasma gallisepticum, 0.1 µg/mL (≈ 0.374 µM) in the test with Mycoplasma pulmonis and 0.05 µg/mL (≈ 0.187 µM) in the test with Mycoplasma hyorhinis.

In the case of `Cc1ccccc1C(=O)CCSC(=S)N(C)C` [compound 57, 2-(o-Toluoyl)ethyl dimethyldithiocarbamate], the MIC with Mycoplasma gallisepticum amounted to 0.1 µg/mL (≈ 0.374 µM); in the test on Mycoplasma pulmonis it was 0.2 µg/mL (≈ 0.748 µM); in the test on Mycoplasma hyorhinis it was 0.1 µg/mL (≈ 0.374 µM).

For the compound `O=C(CCSC(=S)N1CCOCC1)c1ccccc1[N+](=O)[O-]` [compound 61, 2-(o-Nitrobenzoyl)ethyl 4-morpholinecarbodithioate], the results for the MIC in the test on Mycoplasma gallisepticum, in the test with Mycoplasma pulmonis and in the test on Mycoplasma hyorhinis were 0.1 µg/mL (≈ 0.294 µM), 0.39 µg/mL (≈ 1.15 µM) and 1.56 µg/mL (≈ 4.58 µM), respectively.

On to `CN(C)C(=S)SCCC(=O)c1cccnc1` [compound 69], for which the MIC with Mycoplasma gallisepticum, in the test with Mycoplasma pulmonis and in the test on Mycoplasma hyorhinis was 0.1 µg/mL (≈ 0.393 µM) each time.

On to `CC(=O)CCSC(=S)N(C)C` [compound 78, 2-Acetylethyl dimethyldithiocarbamate], for which the MIC came out at 0.05 µg/mL (≈ 0.261 µM) in the test on Mycoplasma gallisepticum, 0.05 µg/mL (≈ 0.261 µM) in the test on Mycoplasma pulmonis and 0.025 µg/mL (≈ 0.131 µM) in the test on Mycoplasma hyorhinis.

Take `CCCCN(C)C(=S)SCCC(C)=O` [compound 80, 2-Acethylethyl butylmethyldithiocarbamate]: the MIC in the test on Mycoplasma gallisepticum, with Mycoplasma pulmonis and in the test on Mycoplasma hyorhinis was 0.1 µg/mL (≈ 0.428 µM) in each case.

`CC(=O)CCSC(=S)N(C)C1CCCCC1` [compound 81, 2-Acetylethyl cyclohexylmethyldithiocarbamate]: the MIC in the test with Mycoplasma gallisepticum, in the test with Mycoplasma pulmonis and with Mycoplasma hyorhinis was 0.2 µg/mL (≈ 0.771 µM) throughout.

For the compound `CC(=O)CCSC(=S)N(C)Cc1ccccc1` [compound 82, 2-Acetylethyl benzylmethyldithiocarbamate], the MIC with Mycoplasma gallisepticum, with Mycoplasma pulmonis and in the test on Mycoplasma hyorhinis was 0.2 µg/mL (≈ 0.748 µM) throughout.

Take `CC(=O)CCSC(=S)N1CCCCCC1` [compound 89, 2-Acetylethyl 1-hexamethyleneiminecarbodithioate]: the MIC in the test on Mycoplasma gallisepticum came to 0.2 µg/mL (≈ 0.815 µM); in the test with Mycoplasma pulmonis, 0.1 µg/mL (≈ 0.407 µM); in the test on Mycoplasma hyorhinis it was 0.1 µg/mL (≈ 0.407 µM).

On to `CC(=O)CCSC(=S)N1CCOCC1` [compound 91, 2-Acetylethyl 4-morpholinecarbodithioate], for which the MIC with Mycoplasma gallisepticum was 0.2 µg/mL (≈ 0.857 µM); in the test on Mycoplasma pulmonis, 0.2 µg/mL (≈ 0.857 µM); in the test with Mycoplasma hyorhinis, 0.025 µg/mL (≈ 0.107 µM).

On to `CC(=O)CCSC(=S)N1CCN(C)CC1.Cl` [compound 93, 2-Acetylethyl 4-methyl-1-piperazinecarbodithioate hydrochloride], for which the results for the MIC with Mycoplasma gallisepticum, in the test on Mycoplasma pulmonis and in the test with Mycoplasma hyorhinis were 0.1 µg/mL, 0.1 µg/mL and 0.05 µg/mL, respectively.

With `CCC(=O)CCSC(=S)N(CC)CC` [compound 99, 2-Propionylethyl diethyldithiocarbamate], the MIC with Mycoplasma gallisepticum, in the test on Mycoplasma pulmonis and with Mycoplasma hyorhinis was 0.05 µg/mL (≈ 0.214 µM) each time.

With `CCC(=O)CCSC(=S)N1CCOCC1` [compound 101, 2-Propionylethyl 4-morphonlinecarbodithioate], the MIC with Mycoplasma gallisepticum, with Mycoplasma pulmonis and with Mycoplasma hyorhinis was 0.1 µg/mL (≈ 0.404 µM) in each case.

As for `CC(C)C(=O)CCSC(=S)N(C)C` [compound 104, 2-Isobutyrylethyl dimethyldithiocarbamate], the MIC in the test with Mycoplasma gallisepticum, with Mycoplasma pulmonis and in the test with Mycoplasma hyorhinis was 0.2 µg/mL (≈ 0.912 µM) each time.

Consider `CN(C)C(=S)SCCC(=O)C(C)(C)C` [compound 108, 2-Pivaroylethyl dimethyldithiocarbamate], for which the MIC in the test on Mycoplasma gallisepticum, in the test with Mycoplasma pulmonis and with Mycoplasma hyorhinis was 0.2 µg/mL (≈ 0.857 µM) throughout.

As to `CN(C)C(=S)SCCC(=O)CCc1ccccc1` [compound 123, 2-Hydrocinnamoylethyl dimethyldithiocarbamate], the MIC in the test with Mycoplasma gallisepticum, in the test on Mycoplasma pulmonis and in the test with Mycoplasma hyorhinis was 0.2 µg/mL (≈ 0.711 µM) throughout.

For the compound `CCN(CC)C(=S)SCCC(=O)CCc1ccccc1O` [compound 125, 2-(o-Hydroxyhydrocinnamoyl)ethyl diethyldithiocarbamate], the MIC with Mycoplasma gallisepticum, with Mycoplasma pulmonis and with Mycoplasma hyorhinis was 0.2 µg/mL (≈ 0.614 µM) each time.

For the compound `CCN(CC)C(=S)SCCC(=O)CCc1ccc(OC)cc1` [compound 129, 2-(p-Methoxyhydrocinnamoyl)ethyl diethyldithiocarbamate], the MIC with Mycoplasma gallisepticum, in the test with Mycoplasma pulmonis and with Mycoplasma hyorhinis was 0.2 µg/mL (≈ 0.589 µM) each time.

On to `CN(C)C(=S)SCCC(=O)C=Cc1ccccc1` [compound 134, 2-Cinnamoylethyl dimethyldithiocarbamate], for which the MIC in the test with Mycoplasma gallisepticum, in the test on Mycoplasma pulmonis and with Mycoplasma hyorhinis was 0.2 µg/mL (≈ 0.716 µM) in each case.

With `CCN(CC)C(=S)SCCC(=O)C=Cc1ccccc1` [compound 135, 2-Cinnamoylethyl diethyldithiocarbamate], the MIC in the test on Mycoplasma gallisepticum, in the test on Mycoplasma pulmonis and in the test with Mycoplasma hyorhinis was 0.2 µg/mL (≈ 0.65 µM) each time.

Consider `CCN(CC)C(=S)SCCC(=O)C=Cc1ccc(C)cc1` [compound 142, 2-(p-Methylcinnamoyl)ethyl diethyldithiocarbamate], for which the MIC with Mycoplasma gallisepticum, in the test with Mycoplasma pulmonis and in the test with Mycoplasma hyorhinis was 0.2 µg/mL (≈ 0.622 µM) throughout.

For the compound `CC1=C(C=CC(=O)CCSC(=S)N(C)C)C(C)(C)CCC1` [compound 146, 2-[β-(2,6,6-Trimethylcyclohexene-1-yl)acryloyl]-ethyl dimethyldithiocarbamate], the MIC in the test with Mycoplasma gallisepticum, in the test on Mycoplasma pulmonis and in the test with Mycoplasma hyorhinis was 0.39 µg/mL (≈ 1.2 µM) throughout.

`CCN(CC)C(=S)SCC(C)C(C)=O` (stereo not drawn) [compound 148, 2-Acetylpropyl diethyldithiocarbamate]: the MIC in the test with Mycoplasma gallisepticum, with Mycoplasma pulmonis and in the test with Mycoplasma hyorhinis was 0.05 µg/mL (≈ 0.214 µM) each time.

Take `CC(=O)C(C)CSC(=S)N1CCCCC1` (stereo not drawn) [compound 149, 2-Acetylpropyl 1-piperidinecarbodithioate]: the MIC worked out at 0.2 µg/mL (≈ 0.815 µM) in the test on Mycoplasma gallisepticum, 0.2 µg/mL (≈ 0.815 µM) in the test on Mycoplasma pulmonis and 0.05 µg/mL (≈ 0.204 µM) with Mycoplasma hyorhinis.
